pIC50: −log10 of the molar value. Like-named read-outs stand apart in the source and are kept apart here.
Target: T1, human MRGPR X4 (Homo sapiens, UniProt Q96LA9)
T1 construct: expressed in transfected cells
Assay: MRGPR X4 antagonist activity, IP-One Gq HTRF assay in stably transfected HEK cells
Assay type: cell-based
In short: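 Human MRGPR X4-expressing HEK cells, 20,000/well, were incubated with compound (10-point curve, 10 uM top, 1:3 dilutions) plus agonist (10 μM bilirubin, 20 μM deoxycholic acid or 100 μM conjugated bilirubin) in Tris/NaCl/LiCl buffer, pH 8, for 1 h at 37 °C, then 30 min at room temperature. IP-1 was read by HTRF, and IC50 was taken from the HTRF ratio.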

[1] = versus 20 μM deoxycholic acid agonist, HEK cells expressing human MRGPR X4, read-out: MRGPRX4 Antagonist Activity

T1 sequence (Q96LA9 whole entry): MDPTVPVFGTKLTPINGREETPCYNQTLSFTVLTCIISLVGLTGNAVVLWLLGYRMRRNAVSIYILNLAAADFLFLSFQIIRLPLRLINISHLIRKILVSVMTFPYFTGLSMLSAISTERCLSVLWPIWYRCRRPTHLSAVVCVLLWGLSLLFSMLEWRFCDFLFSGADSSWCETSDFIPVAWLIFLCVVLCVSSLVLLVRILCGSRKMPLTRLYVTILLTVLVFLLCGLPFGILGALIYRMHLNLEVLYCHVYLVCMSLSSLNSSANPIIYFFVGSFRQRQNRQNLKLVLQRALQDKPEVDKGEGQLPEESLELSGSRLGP

Cc1cccc(S(=O)(=O)NC(=O)c2nn(Cc3ccc(Cl)cc3)c3ccccc23)c1 [Compound 279]
pIC50 [1]: 5.60 to 6.00

N#Cc1ccc(S(=O)(=O)NC(=O)c2nn(Cc3ccc(OC(F)F)cc3)c3ccccc23)cc1 [Compound 280]
pIC50 [1]: 5.60 to 6.00

O=C(NS(=O)(=O)c1cccc(OC(F)(F)F)c1)c1nn(Cc2ccc(OC(F)F)cc2)c2ccccc12 [Compound 281]
pIC50 [1]: 5.60 to 6.00

Cc1cccc(S(=O)(=O)NC(=O)c2nn(Cc3ccc(OC(F)F)cc3)c3ccccc23)c1C [Compound 282]
pIC50 [1]: 5.60 to 6.00

Cc1cccc(S(=O)(=O)NC(=O)c2nn(Cc3ccc(OC(F)F)cc3)c3ccccc23)c1Cl [Compound 283]
pIC50 [1]: 5.60 to 6.00

Cc1ccccc1S(=O)(=O)NC(=O)c1nn(Cc2ccc(C(F)(F)F)cc2Cl)c2ccccc12 [Compound 284]
pIC50 [1]: 5.60 to 6.00

COc1cccc(S(=O)(=O)NC(=O)c2nn(Cc3ccc(OC(F)F)cc3)c3ccccc23)c1 [Compound 285]
pIC50 [1]: 5.60 to 6.00

O=C(NS(=O)(=O)c1ccccc1OC(F)(F)F)c1nn(Cc2ccc(OC(F)F)cc2)c2ccccc12 [Compound 286]
pIC50 [1]: 5.60 to 6.00

Cc1ccccc1S(=O)(=O)NC(=O)c1nn(Cc2ccc(Cl)cc2)c2ccccc12 [Compound 287]
pIC50: 5.60 to 6.00

Cc1ccccc1CS(=O)(=O)NC(=O)c1nn(Cc2ccc(Cl)cc2)c2ccccc12 [Compound 288]
pIC50 [1]: 5.60 to 6.00

COc1ccc(S(=O)(=O)NC(=O)c2nn(Cc3ccc(OC(F)F)cc3)c3ccccc23)cc1 [Compound 289]
pIC50 [1]: 5.60 to 6.00

Cc1cc(S(=O)(=O)NC(=O)c2nn(Cc3ccc(OC(F)F)cc3)c3ccccc23)ccc1F [Compound 290]
pIC50 [1]: 5.60 to 6.00

O=C(NS(=O)(=O)c1ccccn1)c1nn(Cc2ccc(Cl)cc2)c2ccccc12 [Compound 291]
pIC50 [1]: 5.60 to 6.00

Cc1cccc(S(=O)(=O)NC(=O)c2nn(Cc3ccc(F)cc3)c3ccccc23)c1 [Compound 292]
pIC50 [1]: 5.60 to 6.00

COc1ccc(Cn2nc(C(=O)NS(=O)(=O)c3cccc(C)c3)c3ccccc32)cc1 [Compound 293]
pIC50 [1]: 5.60 to 6.00

O=C(NS(=O)(=O)c1ccc(Cl)cc1Cl)c1nn(Cc2ccc(OC(F)F)cc2)c2ccccc12 [Compound 294]
pIC50 [1]: 5.60 to 6.00

Cc1ccc(S(=O)(=O)NC(=O)c2nn(Cc3ccc(OC(F)F)cc3)c3ccccc23)cc1C [Compound 295]
pIC50 [1]: 5.60 to 6.00

O=C(NS(=O)(=O)c1ccc(OC(F)(F)F)cc1)c1nn(Cc2ccc(OC(F)F)cc2)c2ccccc12 [Compound 296]
pIC50 [1]: < 5.60

Cc1ccc(Cn2nc(C(=O)NS(=O)(=O)c3cccc(C)c3)c3ccccc32)cc1 [Compound 297]
pIC50 [1]: < 5.60

O=C(NS(=O)(=O)Cc1ccccn1)c1nn(Cc2ccc(Cl)cc2)c2ccccc12 [Compound 299]
pIC50 [1]: < 5.60

COc1cccc(CS(=O)(=O)NC(=O)c2nn(Cc3ccc(Cl)cc3)c3ccccc23)c1 [Compound 300]
pIC50 [1]: < 5.60

N#Cc1ccc(S(=O)(=O)NC(=O)c2nn(Cc3cccc(F)c3)c3ccccc23)cc1Cl [Compound 301]
pIC50 [1]: < 5.60

CC(C)c1ccccc1S(=O)(=O)NC(=O)c1nn(Cc2ccc(Cl)cc2)c2ccccc12 [Compound 302]
pIC50 [1]: < 5.60

Cc1cc(S(=O)(=O)NC(=O)c2nn(Cc3ccc(OC(F)F)cc3)c3ccccc23)ccc1Cl [Compound 303]
pIC50 [1]: < 5.60

O=C(NS(=O)(=O)c1cccnc1)c1nn(Cc2ccc(Cl)cc2)c2ccccc12 [Compound 304]
pIC50 [1]: < 5.60

Cc1cccc(S(=O)(=O)NC(=O)c2nn(Cc3ccc(Cl)cc3)c3ccccc23)n1 [Compound 305]
pIC50 [1]: < 5.60

Cc1cccc(S(=O)(=O)NC(=O)c2nn(Cc3ccc(C(F)(F)F)cc3Cl)c3ccccc23)c1 [Compound 306]
pIC50 [1]: < 5.60

Cc1c(Cl)cccc1S(=O)(=O)NC(=O)c1nn(Cc2cccc(F)c2)c2ccccc12 [Compound 307]
pIC50 [1]: < 5.60

O=C(NS(=O)(=O)c1ccc(Cl)cc1Cl)c1nn(Cc2ccc(Cl)cc2)c2ccccc12 [Compound 308]
pIC50 [1]: < 5.60

Cc1ccc(S(=O)(=O)NC(=O)c2nn(Cc3ccc(OC(F)F)cc3)c3ccccc23)cc1 [Compound 309, 1-(4-(difluoromethoxy)benzyl)-N-tosyl-1H-indazole-3-carboxamide]
pIC50 [1]: 5.60 to 6.00

O=C(NS(=O)(=O)Cc1cccnc1)c1nn(Cc2ccc(Cl)cc2)c2ccccc12 [Compound 310]
pIC50 [1]: < 5.60

O=C(O)c1ccc(S(=O)(=O)NC(=O)c2nn(Cc3ccc(OC(F)F)cc3)c3ccccc23)cc1 [Compound 311, 4-(N-(1-(4-(difluoromethoxy)benzyl)-1H-indazole-3-carbonyl)sulfamoyl)benzoic acid]
pIC50 [1]: 5.60 to 6.00

Cc1ccccc1S(=O)(=O)NC(=O)c1cn(Cc2ccc(OC(F)F)cc2)c2ccccc12 [Compound 312, 1-(4-(difluoromethoxy)benzyl)-N-(o-tolylsulfonyl)-1H-indole-3-carboxamide]
pIC50 [1]: 5.60 to 6.00

Cc1cccc(S(=O)(=O)NC(=O)c2cn(Cc3ccc(OC(F)F)cc3)c3ccccc23)c1 [Compound 313]
pIC50 [1]: < 5.60

O=S(=O)(NCCc1ccc(Cl)c(F)c1)c1cn(Cc2ccc(Cl)cc2)c2ccccc12 [Compound 314]
pIC50 [1]: 5.60 to 6.00

O=C(CSc1cn(Cc2ccc(Br)cc2)c2ccccc12)N1CCCC1 [Compound 315, 2-(4(1H-indol-3-yl)thio)-1-(pyrrolidin-1-yl)ethan-1-one]
pIC50 [1]: 5.60 to 6.00

O=C(O)c1nn(Cc2ccc(Cl)cc2Cl)c2ccccc12 [Compound 316, 1-(2,4-dichlorobenzyl)-1H-indazole-3-carboxylic acid]
pIC50 [1]: 5.60 to 6.00

O=C(O)c1nn(Cc2ccc(C(F)(F)F)cc2Cl)c2ccccc12 [Compound 317]
pIC50: 6.00 to 6.30

O=C(O)c1nn(Cc2ccc(Cl)c(Cl)c2)c2ccccc12 [Compound 318]
pIC50: 5.60 to 6.00

O=C(O)c1nn(Cc2ccc(Cl)cc2)c2ccccc12 [Compound 319]
pIC50: 5.60 to 6.00

O=C(O)c1nn(Cc2ccc(Cl)cc2)c2ccc(Cl)cc12 [Compound 320]
pIC50: 5.60 to 6.00

O=C(O)c1nn(Cc2ccc(OC(F)(F)F)cc2)c2ccccc12 [Compound 321]
pIC50: 5.60 to 6.00

O=C(O)c1nn(Cc2ccc(Cl)cc2)c2ccc(F)cc12 [Compound 322]
pIC50: 5.60 to 6.00

CC(C)c1ccc(Cn2nc(C(=O)O)c3ccccc32)cc1 [Compound 323]
pIC50: 5.60 to 6.00

Cc1cc(Cl)ccc1Cn1nc(C(=O)O)c2ccccc21 [Compound 324]
pIC50 [1]: < 5.60

O=C(O)c1nn(Cc2ccc(OC(F)F)cc2)c2ccccc12 [Compound 325]
pIC50: < 5.60

O=C(O)c1nn(Cc2ccc(Cl)cc2)c2cc(F)ccc12 [Compound 326]
pIC50: < 5.60

O=C(O)c1nn(Cc2ccc(Cl)cc2)c2cccc(F)c12 [Compound 327]
pIC50: < 5.60

O=C(O)c1nn(Cc2cccc(OC(F)(F)F)c2)c2ccccc12 [Compound 328]
pIC50: < 5.60

COc1cc(Cn2nc(C(=O)O)c3ccccc32)ccc1Cl [Compound 329]
pIC50: < 5.60

Cc1ccc(Cn2nc(C(=O)O)c3cc(Cl)ccc32)cc1 [Compound 330]
pIC50: < 5.60

O=C(O)c1nn(Cc2ccc(F)cc2)c2ccccc12 [Compound 331]
pIC50: < 5.60

O=C(O)c1nn(Cc2ccc(C3CCCCC3)cc2)c2ccccc12 [Compound 332]
pIC50: < 5.60

Cc1ccc(CNC(=O)c2nn(Cc3ccc(Cl)cc3)c3ccccc23)nn1 [Compound 334]
pIC50: 6.00 to 6.30

COc1cccc(F)c1CNC(=O)c1nn(Cc2ccc(Cl)cc2)c2ccccc12 [Compound 335]
pIC50: < 5.60

O=C(NCCOc1cccnc1)c1nn(Cc2ccc(Cl)cc2)c2ccccc12 [Compound 336]
pIC50: 6.30 to 7.00

O=C(NCCOCc1ccccc1)c1nn(Cc2ccc(Cl)cc2)c2ccccc12 [Compound 337]
pIC50 [1]: < 5.60

O=C(NCCc1c[nH]c2ccc(O)cc12)c1nn(Cc2ccc(Cl)cc2)c2ccccc12 [Compound 338]
pIC50: 6.30 to 7.00

O=C(NCCc1cccc(Cl)c1)c1nn(Cc2ccc(Cl)cc2)c2ccccc12 [Compound 339]
pIC50: 6.00 to 6.30

Cc1[nH]c2ccccc2c1CCNC(=O)c1nn(Cc2ccc(Cl)cc2)c2ccccc12 [Compound 340]
pIC50: < 5.60

Cc1cccc2c(CCNC(=O)c3nn(Cc4ccc(Cl)cc4)c4ccccc34)c[nH]c12 [Compound 341]
pIC50: < 5.60

O=C(NCCc1ccc2c(c1)OCO2)c1nn(Cc2ccc(Cl)cc2)c2ccccc12 [Compound 342]
pIC50: 6.00 to 6.30

COc1ccc(CCNC(=O)c2nn(Cc3ccc(Cl)cc3)c3ccccc23)cc1OC [Compound 343]
pIC50: 6.00 to 6.30

O=C(NCCc1ccc(Cl)c(Cl)c1)c1cn(Cc2ccc(Cl)cc2)c2ccccc12 [Compound 344]
pIC50: < 5.60

O=C(NCCCn1ccnc1)c1nn(Cc2ccc(Cl)cc2)c2ccccc12 [Compound 345]
pIC50: < 5.60

N=C(N)NCCCCNC(=O)c1nn(Cc2ccc(Cl)cc2)c2ccccc12 [Compound 346]
pIC50: 5.60 to 6.00

O=C(CNC(=O)c1nn(Cc2ccc(Cl)cc2)c2ccccc12)NCC(F)(F)F [Compound 347]
pIC50: < 5.60

O=C(NCCc1cnccn1)c1nn(Cc2ccc(Cl)cc2)c2ccccc12 [Compound 348]
pIC50: 5.60 to 6.00

O=C(NCCn1cccc1)c1nn(Cc2ccc(Cl)cc2)c2ccccc12 [Compound 349]
pIC50: 6.00 to 6.30

O=C(NCCc1cccs1)c1nn(Cc2ccc(Cl)cc2)c2ccccc12 [Compound 350]
pIC50: 5.60 to 6.00

O=C(NCCN1CCOCC1)c1nn(Cc2ccc(Cl)cc2)c2ccccc12 [Compound 351]
pIC50: < 5.60

O=C(NCc1nc2ccccc2[nH]1)c1nn(Cc2ccc(Cl)cc2)c2ccccc12 [Compound 352]
pIC50: 6.30 to 7.00

Cn1cc(CNC(=O)c2nn(Cc3ccc(Cl)cc3)c3ccccc23)cn1 [Compound 353]
pIC50: < 5.60

Cn1ccc(CNC(=O)c2nn(Cc3ccc(Cl)cc3)c3ccccc23)n1 [Compound 354]
pIC50: < 5.60

O=C(NCCCc1ccncc1)c1nn(Cc2ccc(Cl)cc2)c2ccccc12 [Compound 355]
pIC50: < 5.60

O=C(NCCc1coc2ccccc12)c1nn(Cc2ccc(Cl)cc2)c2ccccc12 [Compound 356]
pIC50: 6.00 to 6.30

O=C(NCCc1nc2ccccc2[nH]1)c1nn(Cc2ccc(Cl)cc2)c2ccccc12 [Compound 357]
pIC50: > 7.00
